The text below walks through data of the SangsterLogP compilation.

The conditions of this data set: pH 7.4.
Regarding `CC(C)CC(O)C(CC1CCCCC1)NC(=O)C(Cc1c[nH]cn1)NC(=O)C(CC(=O)N1CCOCC1)Cc1ccccc1` (stereo not given), the logD – broadly, the decadic logarithm of the distribution of all forms, ionised or not, between an organic phase and buffer at a given pH – came to 3.51.

`CC(C)CC(O)C(O)C(CC1CCCCC1)NC(=O)C(NC(=O)C(CC(=O)N1CCN(C)CC1)Cc1ccccc1)c1cc[nH]n1` (stereo not given): the logD is 4.02.

In turn, `CC(C)CC(O)C(O)C(CC1CCCCC1)NC(=O)C(NC(=O)C(CC(=O)N1CCN(C)CC1)Cc1ccccc1)c1c[nH]cn1` (stereo not given) returned a logD of 1.66.

Turning to `CC(C)CC(O)C(CC1CCCCC1)NC(=O)C(Cc1cc[nH]n1)NC(=O)C(CC(=O)N1CCCOCC1)Cc1ccccc1` (stereo not given), the logD was 4.01.

For the compound `CC(C)CC(O)C(CC1CCCCC1)NC(=O)C(CN=[N+]=[N-])NC(=O)C(CC(=O)N1CCCOCC1)Cc1ccccc1` (stereo not given), the logD amounted to 4.1.

Regarding `CC(C)CC(O)C(CC1CCCCC1)NC(=O)C(Cc1cscn1)NC(=O)C(CC(=O)N1CCOCC1)Cc1ccccc1` (stereo not given), the logD was found to be 4.27.

The compound `CC(C)CC(O)C(O)C(CC1CCCCC1)NC(=O)C(Cc1cscn1)NC(=O)C(CC(=O)CN1CCCOCC1)Cc1ccccc1` (stereo not given) had a logD of 3.91.

`COc1ccc(CC(CC(=O)N2CCN(C)CC2)C(=O)NC(Cc2cscn2)C(=O)NC(CC2CCCCC2)C(O)C(O)CC(C)C)cc1` (stereo not given) gave a logD of 3.38.

In turn, `CC(C)CC(O)C(CC1CCCCC1)NC(=O)C(Cc1cn(C)cn1)NC(=O)C(CC(=O)N1CCOCC1)Cc1ccccc1` (stereo not given) returned a pH-dependent lipophilicity (logD) of 3.71.

On to `CC(C)CC(O)C(CC1CCCCC1)NC(=O)C(Cn1ccnc1)NC(=O)C(CC(=O)N1CCOCC1)Cc1ccccc1` (stereo not given), for which the logD stood at 3.79.
